Results reported in patent US20150105252A1, “SUBSTITUTED PYRAZOLES AS HERBICIDES” (E I DU PONT DE NEMOURS AND COMPANY, priority 2013, published 2015).

What was measured:
chickweed = test: Test D postemergence; format: in vivo, Stellaria media; details: scale 0 to 100
Summary of the method: (§1)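 Visual injury scored 0–100 (0 none, 100 complete control) against controls 14–21 days after treatment in a controlled growth environment. Chemicals were formulated in a non-phytotoxic solvent mixture containing surfactant, applied to silt loam soil preemergence or to 1- to 4-leaf plants postemergence.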

kochia [1] = test: Test D preemergence; format: in vivo, Kochia scoparia; details: scale 0 to 100
Summary of the method: as §1

morningglory = test: Test F preemergence; format: in vivo, Ipomoea coccinea
Summary of the method: (§2)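 Visual rating 0–100 vs untreated controls (0 = no effect, 100 = complete control) after 14–21 d greenhouse. Pre: seeds in silt loam soil. Post: plants 2–18 cm, 1–4 leaf. Formulation: non-phytotoxic solvent mix + surfactant.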

hairy beggarticks = test: Test F preemergence; format: in vivo, Bidens pilosa
Summary of the method: as §2

soybean = test: Test F preemergence; format: in vivo, Glycine max
Summary of the method: as §2

speedwell [2] = test: Test D preemergence; format: in vivo, Veronica persica; details: scale 0 to 100
Summary of the method: as §1

kochia [3] = test: Test F preemergence; format: in vivo, Kochia scoparia
Summary of the method: as §2

johnsongrass = test: Test F preemergence; format: in vivo, Sorghum halepense
Summary of the method: as §2

canarygrass = test: Test D postemergence; format: in vivo, Phalaris minor; details: scale 0 to 100
Summary of the method: as §1

giant foxtail = test: Test F preemergence; format: in vivo, Setaria faberii
Summary of the method: as §2

speedwell [4] = test: Test D postemergence; format: in vivo, Veronica persica; details: scale 0 to 100
Summary of the method: as §1

bromegrass, downy = test: Test D postemergence; format: in vivo, Bromus tectorum; details: scale 0 to 100
Summary of the method: as §1

lambsquarters = test: Test F preemergence; format: in vivo, Chenopodium album
Summary of the method: as §2

dayflower, VA = test: Test F preemergence; format: in vivo, Commelina virginica
Summary of the method: as §2

[5] = Preemergence, 62 g ai/ha, scale 0 to 100
[6] = Preemergence, 125 g ai/ha, scale 0 to 100
[7] = preemergence, 8 g ai/ha, scale 0 to 100, 100 is complete control

With `CCOc1cc(C(=O)NC(C)C)nn1Cc1ccnc(C(F)(F)F)c1` [Compound 188] the “Chickweed plant response rating” value (chickweed; Postemergence, 31 g ai/ha) was 65, the “Chickweed plant response rating” value (chickweed; Postemergence, 125 g ai/ha) was 75 and the “Chickweed plant response rating” value (chickweed; Postemergence, 250 g ai/ha) was 95. For the same compound, the “Chickweed plant response rating” value (chickweed; postemergence, 62 g ai/ha) was 65, the “Plant response rating, Kochia” value (kochia [1]; 62 g ai/ha) was 100 and the “Plant response rating, Kochia” value (kochia [1]; 125 g ai/ha) was 100. The “Plant response rating, Kochia” value (kochia [1]; 250 g ai/ha) was 100, the “Plant response rating, Morningglory” value (morningglory; Preemergence, 16 g ai/ha, scale 0 to 100) was 30 and the “Plant response rating, Morningglory” value (morningglory; [5]) was 70. The “Plant response rating, Morningglory” value (morningglory; [6]) was 100, the “Plant response rating, Morningglory” value (morningglory; [7]) was 65 and the “Plant response rating, Hairy Beggarticks” value (hairy beggarticks; [5]) was 0. The “Plant response rating, Hairy Beggarticks” value (hairy beggarticks; [6]) was 0, the “Plant response rating, Hairy Beggarticks” value (hairy beggarticks; [7]) was 0 and the “Plant response rating, Soybean” value (soybean; [5]) was 30. The “Plant response rating, Soybean” value (soybean; [6]) was 85, the “Plant response rating, Soybean” value (soybean; [7]) was 0 and the “Plant response rating, Speedwell” value (speedwell [2]; 62 g ai/ha) was 100. For the same compound, the “Plant response rating, Speedwell” value (speedwell [2]; 125 g ai/ha) was 100, the “Plant response rating, Speedwell” value (speedwell [2]; 250 g ai/ha) was 100 and the “Plant response rating, Kochia” value (kochia [3]; [5]) was 98. For the same compound, the “Plant response rating, Kochia” value (kochia [3]; [6]) was 100, the “Plant response rating, Kochia” value (kochia [3]; [7]) was 0 and the “Plant response rating, Johnsongrass” value (johnsongrass; [5]) was 80. The “Plant response rating, Johnsongrass” value (johnsongrass; [6]) was 95, the “Plant response rating, Johnsongrass” value (johnsongrass; [7]) was 0 and the “Canarygrass plant response rating” value (canarygrass; Postemergence, 31 g ai/ha) was 15. The “Canarygrass plant response rating” value (canarygrass; Postemergence, 125 g ai/ha) was 20, the “Canarygrass plant response rating” value (canarygrass; Postemergence, 250 g ai/ha) was 35 and the “Canarygrass plant response rating” value (canarygrass; postemergence, 62 g ai/ha) was 15. The “Plant response rating, Giant Foxtail” value (giant foxtail; [5]) was 100, the “Plant response rating, Giant Foxtail” value (giant foxtail; [6]) was 100 and the “Plant response rating, Giant Foxtail” value (giant foxtail; [7]) was 5. For the same compound, the “Speedwell plant response rating” value (speedwell [4]; Postemergence, 31 g ai/ha) was 75, the “Speedwell plant response rating” value (speedwell [4]; Postemergence, 125 g ai/ha) was 80 and the “Speedwell plant response rating” value (speedwell [4]; Postemergence, 250 g ai/ha) was 90. For the same compound, the “Speedwell plant response rating” value (speedwell [4]; postemergence, 62 g ai/ha) was 75, the “Bromegrass, Downy plant response rating” value (bromegrass, downy; Postemergence, 31 g ai/ha) was 15 and the “Bromegrass, Downy plant response rating” value (bromegrass, downy; Postemergence, 125 g ai/ha) was 15. The “Bromegrass, Downy plant response rating” value (bromegrass, downy; Postemergence, 250 g ai/ha) was 20, the “Bromegrass, Downy plant response rating” value (bromegrass, downy; postemergence, 62 g ai/ha) was 15 and the “Plant response rating, Lambsquarters” value (lambsquarters; [5]) was 100. The “Plant response rating, Lambsquarters” value (lambsquarters; [6]) was 100, the “Plant response rating, Lambsquarters” value (lambsquarters; [7]) was 50 and the “Plant response rating, Dayflower, VA” value (dayflower, VA; [5]) was 90. The “Plant response rating, Dayflower, VA” value (dayflower, VA; [6]) was 100 and the “Plant response rating, Dayflower, VA” value (dayflower, VA; [7]) was 0.
